Test results as given in patent publication US20130039928A1, “COMPOSITIONS AND METHODS FOR REVERSING CORTICOSTEROID RESISTANCE OR TREATING RESPIRATORY INFECTIONS” (priority 2010, published 2013).
“Also recorded” adds a separate entry of the source.

How the values were obtained:
[1] = test system: Pseudomonas aeruginosa; test: Phagocytosis assay, FITC-labeled PA, alveolar macrophages; format: cell-based, human
Description: Human alveolar macrophages were purified from individual BAL samples by centrifugation and seeded onto 6-well tissue culture plates. After incubation for 2 h, non-adherent cells were removed and the adherent cells were incubated with R, S-sulforaphane (5 μM; LKT Laboratories, Inc., St. Paul, Minn.) and or DMSO in RPMI 1640 culture medium with 10% FBS and 1% penicillin-streptomycin (Invitrogen, Carlsbad, Calif.). After 16-20 h, adherent cells were scraped, suspended in RPMI 1640 culture media and plated onto 96-well tissue culture plates for bacterial phagocytosis and clearance assays. […] For MARCO antibody-depletion, alveolar macrophages were incubated with human anti-MARCO antibody (1 μg/ml; (Hycult, Uden, The Netherlands) for 4 hours prior to bacterial challenge.
Sputum isolates of nontypeable H. influenzae and P. aeruginosa obtained from patients with COPD at the Department of Veterans Affairs, Western New York Healthcare System were used (S. Sethi, N. Evans, B. J. Grant, T. F. Murphy, N Engl J Med 347, 465 (Aug. 15, 2002); C. S. Berenson, M. A. Garlipp, L. J. Grove, J. Maloney, S. Sethi, J Infect Dis 194, 1375 (Nov. 15, 2006); T. F. Murphy et al., Am J Respir Crit Care Med 177, 853 (Apr. 15, 2008); T. F. Murphy, A. L. Brauer, A. T. Schiffmacher, S. Sethi, Am J Respir Crit Care Med 170, 266 (Aug. 1, 2004)). For bacterial growth, H. influenzae was cultured on chocolate agar or grown in brain heart infusion broth supplemented with 20 μg/mlNAD and 10 μg/ml hemin at 35° C. in 5% CO2. P. aeruginosa was cultured on LB agar plates or in LB broth at 37° C. For FITC-labeling of bacteria, heat inactivated PA and NTHI (10^9 CFU/ml) were resuspended in 1 ml of labeling buffer (0.1 M NaHCO3, pH 9.2) and incubated with fluorescein isothiocyanate (FITC) (Sigma) under constant stiffing in the dark at room temperature for 1 h. Finally, bacteria were washed three times with PBS and dialyzed overnight against PBS. FITC-labeled bacteria were resuspended with PBS at a concentration of 10^9/ml.
Bacterial phagocytosis was quantified using a flow cytometry analysis.

[2] = test system: MARCO; settings: alveolar macrophages from mice exposed to CS
Description: C57BL/6J mice were housed under controlled conditions for temperature and humidity, using a 12-hour light/dark cycle. At 8 weeks of age, mice were exposed to CS for (2.5 h/day for 5 days/week) for 1 week or 6 months using a machine that produces cigarette smoke (TE-10, Teague Enterprises) and reference cigarettes (2R4F) with a total suspended particle concentration of 250 mg/m^3 as previously described (T. E. Sussan et al., Proc Natl Acad Sci USA, (Dec. 22, 2008)). Following exposure to CS, mice were inoculated with PA or NTHI at a dose of 10^3 CFU in 50 μl of PBS intranasally. For sulforaphane administration (0.5 mg/mouse of R, S-sulforaphane in PBS), a nebulizer (Aerogen, Inc., Galway, Ireland) designed specifically for small animals was used.

[3] = test system: IL-8; test: Corticosteroid responsiveness: basal and LPS-induced IL-8 secretion by alveolar macrophages; format: cell-based, human
Description: (§1) For inducing corticosteroid resistance, PMs were exposed to cigarette smoke condensate (CSC, 100 μg/ml; Murty Pharmaceuticals, Lexington, Ky.) for 16 h. Exposure to S-nitrosoglutathione (GSNO, 10 μM) was limited to 4 h. […] For assessing corticosteroid responsiveness, macrophages were incubated with dexamethasone (1 μM, Sigma) for 1 h followed by LPS (100 ng/ml, Sigma) for additional 4 h.
For human IL-8 and mouse IL-6 and MCP-1 proteins, Quantikine ELISA kits from R&D systems (Minneapolis, Minn.) were used according to the manufacturer's instructions.

[4] = test system: HDAC2; test: Posttranslational modification of HDAC2 in alveolar macrophages (immunoblot, DAN, biotin-switch); format: cell-based, human
Description: S-nitrosylation of proteins was analyzed by anti-SNO antibody, biotin switch assay, and or 2,3-diaminonapthalene (DAN) assay. […] Detail methodology is described in supplementary data.
Macrophage cell or lung tissue extracts were prepared by using 100 μL of immunoprecipitation buffer (50 mM Tris-HCl, pH 8.0, 150 mM NaCl, 1.0% Triton X-100, 0.5% NP-40, 0.1% SDS, 0.5% deoxycholate, and complete protease inhibitor cocktail) from Roche (Morristown, N.J.). The lysis mixture was incubated on ice for 15 minutes and microcentrifuged for 10 minutes at 4° C. Extracts were precleared with 20 μL protein A/G sepharose beads (a 50:50 mix) from Thermo scientific (Rockford, Ill.) and 2 μg of normal IgG. After microcentrifugation, 20 μL of protein A/G sepharose conjugated with 5 μg of antibody was used to precipitate HDAC2 (Santa Cruz Biotechnology, Santa Cruz, Calif.) overnight at 4° C. with rotation. The immune complexes were pelleted with gentle centrifugation, washed twice with 1 mL of immunoprecipitation buffer, and divided equally for the final wash for the activity assay and immunoblotting. For the HDAC assay, immunoprecipitates were resuspended in the activity assay buffer (50 mM TrisHCl, pH 8.0; 10% glycerol; 1 mM dithiothreitol; 0.1 mM EDTA, complete protease inhibitor cocktail). For HDAC2-specific western blotting, immune complexes were washed three times with the immunoprecipitation buffer and finally resuspended in Laemmli buffer for the SDS-PAGE.
For HDAC2-specific nitrosylation detection, cells were lysed in buffer (50 mM Tris-HCl, pH 8.0, 150 mM NaCl, 1% Nonidet P-40, 0.5% deoxycholic acid, 0.1% SDS). […] The pellets were resuspended in 500 μL of PBS.
This assay was performed in the dark.
The Image J program was used for densitometry analyses.

[5] = test system: NO; test: NO levels and iNOS expression in alveolar macrophages; format: cell-based, human; settings: COPD alveolar macrophages, vs vehicle
Description: as §1
HDAC activity was measured using a fluorescent derivative of ε-acetyl-lysine from Enzo life sciences (Farmingdale, N.Y.) according to the manufacturer's recommendations. HDAC2 was immunoprecipitated for analysis of enzymatic activity.
Total RNA was extracted from the cells by lysis and specific binding to a silica membrance (Qiagen RNeasy kit, Qiagen, Valencia, Calif.), and qRT-PCR was performed by using primers and probe sets for human IL-8, NQO1, GCLM, and iNOS (Assay-on-Demand, Applied Biosystems, Foster City, Calif.). A real-time fluorescent PCR system (ABI 7000 Taqman system, Applied Biosystems) was used to perform these assays. β-actin was used as the normalization control.

[6] = GSNO-exposed alveolar macrophages
[7] = nuclear immunopurified HDAC2, compared with vehicle

Compound: C[S+]([O-])CCCCN=C=S (centres unmarked) [sulforaphane]
- phagocytosis of FITC-labeled Pseudomonas aeruginosa ([1]; COPD alveolar macrophages, compared to vehicle): significantly enhanced phagocytosis
- bacterial phagocytosis ([1]; Nrf2-siRNA transfected macrophages): failed to do so
- bacterial phagocytosis ([1]; alveolar macrophages transfected with control ssRNA): enhanced bacterial phagocytosis
- MARCO expression [2]: increased MARCO expression
- DEX sensitivity (histone acetylation on IL-8 promoter, IL-8 expression) ([3]; in the presence of buthionine sulfoximine (BSO)): failed to improve DEX sensitivity
- IL-8 levels ([3]; sulforaphane alone, basally and after LPS treatment): significantly reduced IL-8 levels
- DEX's inhibitory effect on basal and LPS-induced IL-8 secretion (fold reduction) ([3]; sulforaphane treatment then DEX, P<0.01, N=25 patients): 5 fold
- S-nitrosylation of HDAC2 ([4]; 2,3-diaminonaphthalene and biotin-switch assays): reduced
- levels of NO-Tyr HDAC2 [4, 6]: decreased the levels of both NO-Tyr HDAC2 and SNO-HDAC2
- levels of SNO-HDAC2 [4, 6]: decreased the levels of both NO-Tyr HDAC2 and SNO-HDAC2
- ability to reduce the levels of SNOHDAC2 protein ([4]; GSNO-exposed alveolar macrophages in the presence of buthionine sulfoximine): ablated
- S-nitrosylation of HDAC2 (SNO-HDAC2) ([4]; anti-SNO antibody immunoblot): significantly reduced
- tyrosine nitration of HDAC2 (nitrotyrosine-HDAC2) ([4]; immunopurified HDAC2 from alveolar macrophages, compared with vehicle): Significant reductions
- serine phosphorylation of HDAC2 [4, 7]: Significant reductions
- ubiquitination of HDAC2 [4, 7]: Significant reductions
- NO levels [5]: significantly lower levels; also recorded: suppressed NO generation
- iNOS expression [5]: significantly lower levels
